According to article PMC10313921, “A living ex vivo platform for functional, personalized brain cancer diagnosis” (Cell Reports Medicine, 2023):

Columns and labels:
Type in all cases: cell-based, human
[1] = tested on: U373KO (RAD18 knockout of U373WT via CRISPR); test: Drug screening of U373KO tumor foci on OBSCs; conditions: U373 KO on OBSCs
Procedure: (§1) Tumor cells (0.17 μL, 25,000 cells) were seeded onto OBSCs 2h after slicing, with one tumor seeded in the center of each hemisphere for a total of two tumor foci per OBSC. BSM was changed 24h after slicing. Fluorescence images were taken 0 h, 24 h, and 96 h post-seeding for normalization of tumor size. Bioluminescence readouts were also taken at 0 h, 24 h, and 96 h post seeding for assessment of cell viability. Luciferin was added underneath the culture insert and allowed to incubate for 10 min before bioluminescence measurement on an AMI optical imaging system.
(§2) Tumor cells were seeded onto OBSCs 2h after slicing as described above. One day after tumor seeding, six concentrations of each drug were diluted in the media underneath each culture insert, or XRad was applied using an X-Rad 320 Precision X-ray machine (n = 4 tumor foci per concentration; n ≥ 24 tumor foci per drug per cell line). Three days after treatment, the bioluminescence of live tumor cells was measured using an AMI optical imager (Spectral Instruments) and dose-response curves were generated. Tumor survival was normalized to day one tumor fluorescence and compared to an untreated control group.
(§3) Several weighted parameters were factored into an overall drug sensitivity score.
(§4) For DSS parameters 1–6, therapeutic windows were calculated by comparing OBSC toxicity and tumor response at the doses where tumor kill passed through the DSS parameter (Table S1 and S3). For DSS parameter 7, the therapeutic window was calculated by comparing the slopes through the tumor EC50 and the OBSC tox EC50. For DSS parameter 8, the therapeutic window was calculated by comparing the areas under tumor kill and OBSC tox curves. Normalized therapeutic window ratios for DSS parameters 1–8 within each drug-tumor-OBSC interaction were calculated in the following manner: within each window, values ranged from +1 to −1, where values approaching +1 signify increasing tumor kill relative to normal tissue toxicity, and values approaching −1 indicate agents where tumors remained highly viable while toxicity to the normal OBSC tissue was elevated. DSS parameters 9–11 were determined based on the behavior of the tumor in response to the drug, as defined above.
(§5) All individually weighed parameters were added together to generate the DSS. Overall DSS from 0 to 100 signify increasing efficacy in tumor kill relative to OBSC toxicity, while scores from 0 to −100 describe scenarios in which tumors thrive more effectively than OBSCs for a given treatment. Dose-response values were calculated via linear interpolation of raw data, not from best-fit curve equations.

[2] = tested on: MS21 (low-passage patient-derived GBM line); test: Drug screening of MS21 tumor foci on OBSCs
Procedure: as §1, §2, §3, §4, §5

[3] = tested on: MB231Br (breast cancer metastasis to brain); test: Drug screening of MB231Br tumor foci on OBSCs
[4] = tested on: GBM8 (high-passage patient-derived GBM line); test: Drug screening of GBM8 tumor foci on OBSCs
Procedure: as §1, §2, §3, §4, §5

[5] = tested on: U373WT (wild-type established GBM line); test: Drug screening of U373WT tumor foci on OBSCs
Procedure: as §1, §2, §3, §4, §5

[6] = tested on: PIS patient tumor tissue (intracranial sarcoma); test: Drug screening of uncultured patient tumor tissue PIS on OBSCs; conditions: PIS patient tissue; scale -100 to +100
Procedure: as §2
To engraft onto OBSCs, the cryopreserved/thawed or fresh brain tumor tissue was filtered through a 100 μm cell strainer. Each 50 mg of tissue was transfected with 1mL mcherry-FLuc Lentivirus at 1.5e7 vg/ml with 1μL polybrene for 4h at 37°C. After incubation, the brain tumor tissue was washed with PBS three times to remove the residual virus and reconstituted in PBS with a final volume of 150 μL. Then the tissue solution was engrafted atop OBSCs at ∼0.5 mg tissue in 3 μL of PBS on each hemisphere of the slice. The OBSC engrafted with patient tumor tissue was incubated at 37°C with 5% CO2 and 95% humidity. The BSM was changed after 24h and subsequently every 3 days. Tumor treatment studies were executed as described above for tumor lines. The viability of the patient tissue was measured by an AMI optical imaging system with the addition of 1.5 mg/mL luciferin underneath the culture insert.
as §3, §4, §5

[7] = tested on: LN229 (established GBM line); test: Drug screening of LN229 tumor foci on OBSCs
Procedure: as §1, §2, §3, §4, §5

[8] = tested on: PDIPG (low-passage pediatric patient-derived line); test: Drug screening of PDIPG tumor foci on OBSCs
Procedure: as §1, §2, §3, §4, §5

[9] = area under the dose-response curve, trapezoidal rule
[10] = dose required to kill 10% of the tumor
[11] = dose required to kill 25% of the tumor

Q: With `COc1cc([C@@H]2c3cc4c(cc3[C@@H](O[C@@H]3O[C@@H]5CO[C@@H](C)O[C@H]5[C@H](O)[C@H]3O)[C@H]3COC(=O)[C@H]23)OCO4)cc(OC)c1O` [Etoposide] as the molecule, how does the EC50 ([1]; Homo sapiens, U373 MG, dose required to kill 50% of the tumor) read?
A: Its EC50 is 37.8 µM.

Q: What about the EC90 ([1]; Homo sapiens, U373 MG, dose required to kill 90% of the tumor) of the same molecule?
A: Its EC90 is greater than 10 µM.

Q: What about the IC50 ([1]; Homo sapiens, U373 MG, dosed day 1, survival via bioluminescence day 4, linear interpolation) of the same molecule?
A: Its IC50 is 38 µM.

Q: What about the “Killing at highest dose” value [1] of the same molecule?
A: The value was 6.38E-01 fraction of tumor population killed.

Q: And the AUC [1, 9]?
A: Its AUC is 3.37E+02.

Q: And the EC10 [1, 10]?
A: Its EC10 is 2.42 µM.

Q: What about the EC25 [1, 11] of the same molecule?
A: The EC25 was 6.06 µM.

Q: And the Slope ([1]; slope through the EC50)?
A: The Slope was -3.13E-03.

Q: What about the EC50 ([2]; Homo sapiens) of the same molecule?
A: The EC50 was greater than 10 µM.

Q: And the EC90 ([2]; Homo sapiens)?
A: The EC90 was greater than 10 µM.

Q: And the “Killing at highest dose” value ([2]; MS21 on OBSCs)?
A: Its value is -8.00E-02 fraction of tumor population killed.

Q: What about the AUC ([2]; MS21 on OBSCs, area under the dose-response curve, trapezoidal rule) of the same molecule?
A: Its AUC is 1.15E+03.

Q: What about the EC50 ([3]; Homo sapiens, MB231BR on OBSCs, dose required to kill 50% of the tumor) of the same molecule?
A: Its EC50 is 100 µM.

Q: What about the EC90 ([3]; Homo sapiens, MB231BR on OBSCs, dose required to kill 90% of the tumor) of the same molecule?
A: Its EC90 is greater than 10 µM.

Q: And the IC50 ([3]; Homo sapiens, MB231Br on OBSCs, dosed day 1, survival via bioluminescence day 4, linear interpolation)?
A: The IC50 was 100 µM.

Q: And the “Killing at highest dose” value ([3]; MB231BR on OBSCs)?
A: The value was 7.20E-01 fraction of tumor population killed.

Q: What about the AUC ([3]; MB231BR on OBSCs, area under the dose-response curve, trapezoidal rule) of the same molecule?
A: The AUC was 4.75E+02.

Q: And the EC10 ([3]; MB231BR on OBSCs, dose required to kill 10% of the tumor)?
A: The EC10 was 5.26 µM.

Q: What about the EC25 ([3]; MB231BR on OBSCs, dose required to kill 25% of the tumor) of the same molecule?
A: The EC25 was 25 µM.

Q: And the Slope ([3]; MB231BR on OBSCs, slope through the EC50)?
A: The Slope was -3.00E-03.

Q: And the “Killing at highest dose” value ([4]; GBM8 on OBSCs)?
A: Its value is 1.00E+00 fraction of tumor population killed.

Q: And the AUC ([4]; GBM8 on OBSCs, area under the dose-response curve, trapezoidal rule)?
A: The AUC was 8.40E+00.

Q: And the EC10 ([4]; GBM8 on OBSCs, dose required to kill 10% of the tumor)?
A: The EC10 was 0.558 µM.

Q: And the EC25 ([4]; GBM8 on OBSCs, dose required to kill 25% of the tumor)?
A: Its EC25 is 1.74 µM.

Q: And the EC75 ([4]; GBM8 on OBSCs, dose required to kill 75% of the tumor)?
A: The EC75 was 7.47 µM.

Q: What about the Slope ([4]; GBM8 on OBSCs, slope through the EC50) of the same molecule?
A: Its Slope is -8.73E-02.

Q: And the EC50 ([4]; Homo sapiens)?
A: Its EC50 is 4.6 µM.

Q: What about the EC90 ([4]; Homo sapiens) of the same molecule?
A: Its EC90 is 9.19 µM.

Q: And the IC50 ([4]; Homo sapiens)?
A: Its IC50 is 5.2 µM.

Q: And the EC50 ([5]; Homo sapiens, U373 MG, U373 WT on OBSCs, dose required to kill 50% of the tumor)?
A: Its EC50 is 260 µM.

Q: And the EC90 ([5]; Homo sapiens, U373 MG, U373 WT on OBSCs, dose required to kill 90% of the tumor)?
A: Its EC90 is greater than 10 µM.

Q: What about the IC50 ([5]; Homo sapiens, U373 MG, U373 WT on OBSCs, dosed day 1, survival via bioluminescence day 4, linear interpolation) of the same molecule?
A: The IC50 was 260 µM.

Q: What about the “Killing at highest dose” value ([5]; U373 WT on OBSCs) of the same molecule?
A: Its value is 3.30E-01 fraction of tumor population killed.

Q: What about the AUC ([5]; U373 WT on OBSCs, area under the dose-response curve, trapezoidal rule) of the same molecule?
A: Its AUC is 6.12E+02.

Q: And the EC10 ([5]; U373 WT on OBSCs, dose required to kill 10% of the tumor)?
A: Its EC10 is 25.6 µM.

Q: And the EC25 ([5]; U373 WT on OBSCs, dose required to kill 25% of the tumor)?
A: The EC25 was 65.4 µM.

Q: And the Slope ([5]; U373 WT on OBSCs, slope through the EC50)?
A: The Slope was -1.26E-04.

Q: And the “DSS (drug sensitivity score)” value ([5]; U373 WT, scale -100 to +100, tumor kill relative to OBSC toxicity)?
A: The value was −13.

Q: And the “DSS (drug sensitivity score)” value [6]?
A: Its value is 80.

Q: What about the “Killing at highest dose” value [7] of the same molecule?
A: The value was 4.40E-01 fraction of tumor population killed.

Q: What about the EC50 ([7]; Homo sapiens, LN-229, dose required to kill 50% of the tumor) of the same molecule?
A: Its EC50 is greater than 10 µM.

Q: And the EC90 ([7]; Homo sapiens, LN-229, dose required to kill 90% of the tumor)?
A: The EC90 was greater than 10 µM.

Q: And the IC50 ([7]; Homo sapiens, LN-229, dosed day 1, survival via bioluminescence day 4, linear interpolation)?
A: The IC50 was greater than 10 µM.

Q: And the AUC [7, 9]?
A: Its AUC is 6.48E+02.

Q: What about the EC10 [7, 10] of the same molecule?
A: Its EC10 is 3.7 µM.

Q: And the EC25 [7, 11]?
A: The EC25 was 9.26 µM.

Q: And the Slope ([7]; slope through the EC50)?
A: Its Slope is -1.73E-04.

Q: What about the EC50 ([8]; Homo sapiens) of the same molecule?
A: The EC50 was 574 µM.

Q: And the EC90 ([8]; Homo sapiens)?
A: Its EC90 is greater than 10 µM.

Q: And the IC50 ([8]; Homo sapiens)?
A: The IC50 was 574 µM.

Q: What about the “Killing at highest dose” value ([8]; PDIPG on OBSCs) of the same molecule?
A: Its value is 7.50E-01 fraction of tumor population killed.

Q: What about the AUC ([8]; PDIPG on OBSCs, area under the dose-response curve, trapezoidal rule) of the same molecule?
A: The AUC was 6.75E+02.

Q: And the EC10 ([8]; PDIPG on OBSCs, dose required to kill 10% of the tumor)?
A: Its EC10 is 222 µM.

Q: What about the EC25 ([8]; PDIPG on OBSCs, dose required to kill 25% of the tumor) of the same molecule?
A: The EC25 was 242 µM.

Q: And the EC75 ([8]; PDIPG on OBSCs, dose required to kill 75% of the tumor)?
A: The EC75 was 1000 µM.

Q: What about the Slope ([8]; PDIPG on OBSCs, slope through the EC50) of the same molecule?
A: The Slope was -5.87E-04.
